According to publication PMC11276905 (International Journal of Molecular Sciences, 2024):
Entries after “also recorded” stand apart in the source; their conditions may differ. One block for each compound: values may come before it. Where a SMILES comes first, the peptide text is derived from it. The star is where a group is joined. MeOSuc = COC(=O)CCC(=O)*; CH2Cl = ClC*

What was measured:
[1] = molecular target: T1, HNE in U937 cells (Homo sapiens, UniProt P08246); experiment: Intracellular HNE inhibition in cultured U937 cells (residual activity in lysates); format: cell-based; conditions: for time course of HNE inhibition in U937 cells (in words): 0-26 h culture
T1 construct: the myeloid cell line U937, which can differentiate into neutrophils [25] and expresses HNE; host or cells: U937 (histiocytic lymphoma), undifferentiated
T1 sequence (P08246 30-247 limits assumed): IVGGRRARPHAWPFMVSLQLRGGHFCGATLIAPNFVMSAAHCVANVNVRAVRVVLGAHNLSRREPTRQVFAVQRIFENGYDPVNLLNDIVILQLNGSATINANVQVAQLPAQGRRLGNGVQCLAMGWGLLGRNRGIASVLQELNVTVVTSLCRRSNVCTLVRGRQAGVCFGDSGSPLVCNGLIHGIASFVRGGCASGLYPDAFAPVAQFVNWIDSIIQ
Experimental: The enzymatic activity of HNE was measured using a fluorescence-based assay in 96-well black bottom plates (Corning®, 003916, New York, NY, USA). HNE (0.5 nM) or cell lysates (20 µL, ~100 PMN/µL, ~1000 U937/µL, ~5000 HL-60/µL or ~1000 HMC-1/µL) were diluted in assay buffer (200 mM TRIS HCl, 500 mM NaCl, 0.05% Tween-20, pH 8.0). […] AMC (7-Amino-4-methylcoumarin) standard curves were generated by measuring serial dilutions of the fluorophore AMC (1 µM–0 µM) in assay buffer on the same plate and used to calculate nM AMC generation from fluorescence measurements.
U937 cells were plated in sterile 96-U-well plates (92697, TPP, Trasadingen, Switzerland) at a density of 100 cells/µL in a cell culture medium (180 µL per well). Increasing concentrations of inhibitors and solvent controls were diluted in a culture medium and added (20 µL/well) to the 96-well plate 26 h, 6 h, 3 h, and 0 h before harvesting and lysing the cells (see below). Plates were kept at 37 °C, 5% CO2, and 95% humidity throughout the incubation period. […] Similarly, freshly isolated PMN were plated at 50–100 cells/µL in PBS (1 g/L glucose) and incubated for 1 h with inhibitors or controls.
For cell lysis, cells were pelleted in the microtiter plates by centrifugation (400× g, 10 min, 4 °C) and washed three times in PBS (4 °C). Washed cells were then lysed by adding lysis buffer (PBS, 1 M NaCl, 0.1% Tween-20, pH 7.4) and freeze–thawing on dry ice. Finally, lysates were centrifuged (2100× g) to remove cell debris. Enzymatic activity of HNE was determined as described above, and residual activity present after incubation with inhibitors expressed as % of matched solvent controls.

[2] = molecular target: T2, isolated HNE (human neutrophil elastase) (Homo sapiens, UniProt P08246); experiment: Inhibition of isolated HNE, steady-state kinetics (MeOSuc-AAPV-AMC); format: biochemical; conditions: for Ki: incubated 1 h 37 °C, Morrison fit, mean ± SD, compound 5b in phosphate buffer pH 7.4; for inhibition of HNE (in words): negative controls
T2 construct: immediately processed to its active form in the trans-Golgi before being targeted to azurophil granules; purchased Merck (Darmstadt, Germany) 324681
T2 sequence (P08246 30-267): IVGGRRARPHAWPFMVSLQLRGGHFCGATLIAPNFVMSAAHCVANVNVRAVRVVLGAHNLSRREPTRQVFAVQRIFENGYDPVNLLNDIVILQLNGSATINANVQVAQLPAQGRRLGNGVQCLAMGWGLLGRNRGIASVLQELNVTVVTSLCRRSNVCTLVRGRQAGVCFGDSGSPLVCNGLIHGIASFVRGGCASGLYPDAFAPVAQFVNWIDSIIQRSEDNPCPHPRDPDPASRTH
Experimental: (§1) To determine the inhibition constants of reversible inhibitors with isolated HNE and HNE in cell lysates, HNE (0.5 nM) and U937 lysates (1000 cells/µL) were incubated with serial dilutions of the compounds in assay buffer at 37 °C for ≥ 1 h. Subsequently, residual HNE activity was measured as described above and compared to the activity of uninhibited HNE. […] The inhibition curves generated were fitted to Morrisons’s equation to obtain the dissociation equilibrium constant Ki with pro-Fit (Quantum Soft, Uetikon am See, Switzerland) using a Levenberg–Marquardt algorithm.

[3] = molecular target: T3, HNE in U937 lysates (Homo sapiens, UniProt P08246); experiment: Inhibition of HNE activity in U937 lysates; format: biochemical; conditions: for Ki: U937 lysate 1000 cells/µL, incubated 1 h 37 °C, Morrison fit, mean ± SD
T3 construct: the myeloid cell line U937, which can differentiate into neutrophils [25] and expresses HNE; host or cells: U937 (histiocytic lymphoma), undifferentiated
T3 sequence (P08246 30-247 limits assumed): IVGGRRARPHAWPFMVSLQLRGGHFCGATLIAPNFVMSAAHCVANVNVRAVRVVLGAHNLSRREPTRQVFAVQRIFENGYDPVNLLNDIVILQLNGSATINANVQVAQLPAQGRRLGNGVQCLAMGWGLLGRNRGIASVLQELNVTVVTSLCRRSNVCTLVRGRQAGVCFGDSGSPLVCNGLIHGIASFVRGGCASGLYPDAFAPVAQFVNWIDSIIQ
Experimental: (§2) For the quantification and characterization of HNE-like activity in cell lysates, the density of the sample cell suspension was first quantified using a CASY-1 cell counter.
as §1

[4] = molecular target: T4, elastase-like activity (HNE) in PMN lysates (Homo sapiens, UniProt P08246); experiment: Inhibition of elastase-like activity in PMN lysates; format: biochemical; conditions: 4 µM, 1 h, 37 °C; read-out: inhibition of elastase-like activity in PMN lysate
T4 construct: from tissue; host or cells: neutrophil granulocytes from peripheral venous blood of healthy human donors
T4 sequence (P08246 30-247 limits assumed): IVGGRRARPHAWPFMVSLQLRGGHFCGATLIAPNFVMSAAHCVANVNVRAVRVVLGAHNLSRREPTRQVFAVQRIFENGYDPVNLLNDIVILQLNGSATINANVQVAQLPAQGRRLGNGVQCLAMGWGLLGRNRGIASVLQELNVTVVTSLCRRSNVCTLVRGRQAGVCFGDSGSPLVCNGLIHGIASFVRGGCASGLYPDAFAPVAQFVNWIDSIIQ
Description: Residual erythrocytes were eliminated by hypotonic lysis.
as §2

[5] = system: elastase-like activity in HL-60 lysates; experiment: Inhibition of elastase-like activity in HL-60 lysates; format: biochemical, human; conditions: 4 µM, 1 h, 37 °C
Description: as §2

[6] = molecular target: T5, isolated HNE (Homo sapiens, UniProt P08246); experiment: Formation and dissociation of the HNE/inhibitor complex (pre-steady-state kinetics); format: biochemical
T5 construct: immediately processed to its active form in the trans-Golgi before being targeted to azurophil granules; purchased Merck (Darmstadt, Germany) 324681
T5 sequence (P08246 30-267): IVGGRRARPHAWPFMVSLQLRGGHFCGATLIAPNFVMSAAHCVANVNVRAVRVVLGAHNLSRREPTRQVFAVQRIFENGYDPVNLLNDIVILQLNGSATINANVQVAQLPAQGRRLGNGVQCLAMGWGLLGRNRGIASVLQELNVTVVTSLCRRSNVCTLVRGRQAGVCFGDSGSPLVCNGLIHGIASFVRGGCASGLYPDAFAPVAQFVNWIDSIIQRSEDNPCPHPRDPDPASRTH
Experimental: To determine the association rates (kon) of the inhibitors, the enzymatic activity of HNE (0.6 nM) was recorded continuously in an SFM25 fluorometer (Biotek Kontron, Neufahrn, Germany) by following the cleavage of MeOSuc-AAPV-AMC (10 µM) at 37 °C. When a constant rate was established (i.e., after 1–5 min), an inhibitor was added, and the reaction followed for up to 60 min. The pseudo-first-order rate constant kobs was obtained by fitting the observed presteady-state progress curve to the integrated equation of Morrison with pro-Fit. Apparent second-order rate constants were subsequently calculated as k2/Ki = kobs/It by linear regression from several independent experiments using a range of concentrations. For reversible inhibitors, the dissociation rate koff was subsequentially calculated as koff = Ki × kon; for irreversible inhibitors, koff is ≈ zero. Finally, the halftime of the HNE/inhibitor complex formation and dissociation were calculated as t1/2,on = 0.693/(kass × It + koff) and t1/2,off = 0.693/koff, respectively.

[7] = molecular target: T6, HNE in mature PMN (Homo sapiens, UniProt P08246); experiment: Intracellular HNE inhibition in freshly isolated mature PMN
T6 sequence (P08246 30-247 limits assumed): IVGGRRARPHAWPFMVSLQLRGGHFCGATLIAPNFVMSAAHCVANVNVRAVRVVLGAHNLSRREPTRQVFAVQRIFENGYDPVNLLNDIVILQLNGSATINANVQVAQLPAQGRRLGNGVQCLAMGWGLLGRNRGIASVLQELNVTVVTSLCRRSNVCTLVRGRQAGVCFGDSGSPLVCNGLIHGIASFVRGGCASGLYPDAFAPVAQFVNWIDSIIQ

[8] = Inhibitor stability in serum-free cell culture medium; format: physicochemical; conditions: 26 h, serum-free medium, 37 °C
Experimental: Inhibitors were prepared as above and incubated for 26 h in RPMI at 37 °C. Residual inhibitor activity was compared to the activity of freshly prepared compounds by measuring the inhibition of HNE.

[9] = system: U937 cells; experiment: LDH release from U937 cells; format: cell-based, human; conditions: 12.5 µM, after 26 h
Experimental: Cytotoxicity of the inhibitors was determined by analyzing the release of lactate dehydrogenase (LDH) into the cell culture medium using the LDH cytotoxicity kit II (PromoKine, Heidelberg, Germany) or the more sensitive Pierce LDH cytotoxicity assay kit (Thermo Scientific, Darmstadt, Germany) following the manufacturer’s instructions.

Compound: COC(=O)CCC(=O)N[C@@H](C)C(=O)N[C@@H](C)C(=O)N1CCC[C@H]1C(=O)N[C@H](C(=O)CCl)C(C)C [MeOSuc-AAPV-CMK] (MeOSuc-AAPV-CH2Cl)
time course of HNE inhibition in U937 cells (in words) [1]: inhibit HNE in U937 cells increasingly over the 26 h observation period

inhibition at 4 µM ([2]; 4 µM, 1 h, 37 °C, HNE 0.5 nM): 99 ± 0.3% | inhibition at 4 µM ([3]; 4 µM, 1 h, 37 °C, read-out: inhibition of elastase-like activity in U937 lysate): 96 ± 0.3% | inhibition at 4 µM [4]: 97 ± 0.6% | inhibition of elastase-like activity in HL-60 lysate [5]: 2 ± 1.2% | half-life of the complex with HNE (in words) [6]: seconds to a few minutes | effect on HNE in mature PMN (in words) ([7]; 1 h incubation): negligible effect
Compound: CC(C)(C)C(=O)Oc1ccc(S(=O)(=O)Nc2ccccc2C(=O)NCC(=O)O)cc1 [Sivelestat, sivelestat]
effect on HNE activity in the U937 cell culture model (in words) ([1]; 0-26 h, increasing concentrations, alvelestat and sivelestat up to more than 1000-fold above Ki): no detectable effect; also recorded: no measurable effect; also recorded: do not cause detectable intracellular inhibition | potency in PMN compared with U937 cells (in words) ([7]; PMN 1 h vs U937 0-3 h): somewhat more effective in PMN than U937 cells

Ki ([2]; HNE 0.5 nM): > 10 µM | inhibition of HNE (in words) [2]: no inhibition
Compound: CN(C(=O)c1cc2ccccc2cc1C(=O)C(c1cccc2ccccc12)P(=O)(O)O)C1CCN(C(=O)c2ccccc2)CC1 (centres unmarked) [Cathepsin G Inhibitor]

Ki ([2]; HNE 0.5 nM): > 1000 µM | inhibition of HNE (in words) [2]: no inhibition | Ki [3]: > 1000 µM
Compound: N=C(N)c1ccccc1 [Benzamidine, benzamidine]

Ki [3]: 0.00033 µM | koff ([6]; koff = Ki × kon, irreversible inhibitors ≈ zero): 9.2e-05 s⁻¹ | kon ([6]; pre-steady-state kinetics, HNE 0.6 nM, 37 °C, mean ± SD): 2.8 ± 0.06 × 10^5 M^−1 s^−1 | stability in cell culture medium (in words) [8]: appeared stable | LDH release from U937 cells [9]: 12 ± 2%
Compound: COc1cc(C(C)C)c2c(c1)S(=O)(=O)N(COc1cc(=O)n3cccc(OCCN4CCCCC4)c3n1)C2=O [SSR 69071]
time course of HNE inhibition in U937 cells (in words) [1]: most effective immediately after addition and then lose effect over time; also recorded: lose effectiveness over time
